Results published in patent US7122214B2, “Drynaria extractions for treating osteoporosis and their extraction process” (priority 2000, dated 2006).

Key:
Primary Osteoporosis [1] = experiment: Clinical test of RDE on primary osteoporosis: bone density by double-energy X-ray bone density meter; assay type: in vivo, human; conditions: for Bone density of collum femoris / Bone density of trigonal area of femur / Bone density of trochanteric of femur / Bone density of lumber (L2–L4): RDE 180 mg po tid, α-D3 0.5 μg po bid; for Bone density of lumber (L2–L4): n=17 per group
Description: (§1) The drugs with the following dosages and contents are used unless additional explanations.
(§2) Extracts in this present invention: capsules of preparation example 1, each capsule contains 0.18 g of effective component. Positive control medicine: α-D3, (synthesized by TEVA PHARMACEUTICALS, Israel, prepared by Sino-US Kunming BARKER NORTON PHARMACEUTICAL CO., LTD), each capsule contains 0.5 μg of effective component)
(§3) Diagnostic criteria: Comprehensive Diagnostic Grades for Primary Osteoporosis, according to the diagnostic criteria established by Specialized Committee of Osteoporosis of Chinese Association of Geriatrics. (cf. Gu-zhi-shu-song-zheng [M], p169–171, LIU Zhonghou eds. Chemical Industrial Press, Guangzhou, 1992)
(§4) According to the diagnostic criteria mentioned above, 70 cases of osteoporosis are randomly divided into treatment group with RDE and control group with α-D3. RDE is administrated 180 mg, per os, tid, for 6 months-2 period of treatment. And α-D3 is administrated 0.5 μg, per os, bid, for 6 months too.
(§5) Bone density of lumbar (L2–L4) and top-femur (collum femoris, trigonal area of femur, trochanteric of femur) is checked respectively by Double-Energy X-ray Bone Density Meter (LUNAR DPX-L DEXA bone densitometer,US). The unit is g/cm^2. And an Ultrasonic Bone Densitometer (model 2000-SYS-220, METRA Co., Israel) is employed to check the bone density of mid-portion of tibia.

[2] = system: Ovariectomized (OVX) rats; experiment: Bone biomechanics (three point bending of left thighbone) in Ovariectomized (OVX) rats; assay type: in vivo, Wistar rats
Description: Observe the effect of RDE in this invention on both Tretinoin-induced and Ovariectomized (OVX) osteoporosis model in rats. […] RDE was dissolved in distilled water to a concentration of 0.47 mg/ml before administration. And administration was conducted via gastric tube. Tretinoin is manufactured by Chongqing Huabang Pharmaceuticals, Ltd. and was suspended to the concentration of 1.5% with distilled water. Control drug α-D3 was manufactured by TEVA PHARMACEUTICALS, Israel, which is solved in distilled water to the concentration of 0.03 μg/ml before using and administrated orally via gastric tube. Tretinoin-induced osteoporosis rats: sixty female […]-old, mean weight 234.85±15.32 g. Ovariectomized rats: sixty female Wistar rats, 12-week-old, mean weight 183.46±12.45 g. All the animals are obtained from the Experimental Animal Center of Chinese Military Medical Academy. Bone Biomechanics Rheometer was manufactured by Stevens Company, Great Britain (model QTS-25). X ray Bone-density-meter was manufactured by Norland Company, USA (model XR-26). The others are all obtained from market. 4. Dose Selections and Groups: • (1) Tretinoin-induced group: Sixty rats are randomly allocated to six groups (10 rats per group). Blank group: control animals received PSS/d (physiological saline solution) alone. Model group: Tretinoin is given orally 70 mg/kg/d; α-D3 group: both tretinoin and α-D3 are given orally 70 mg/kg/d and 0.002 μg/kg/d respectively; RDE low-dose group: both tretinoin and RDE are given orally 70 mg/kg/d and 54 mg/kg/d respectively; RDE medium-dose group: tretinoin 70 mg/kg/d and RDE 108 mg/kg/d; RDE high-dose group: tretinoin 70 mg/kg/d and RDE 216 mg/kg/d. • (2) Ovariectomized (OVX) rats group: Sixty rats are randomly allocated to six groups (10 rats per group). Blank group is the normal rats. All the other groups are removed amphi-ovaries. Model group received PSS only; α-D3 group: α-D3 is administrated orally 0.002 μg/kg/d; And RDE is administrated orally in the dose of 54, 108, 216 mg/kg/day to OVX rats respectively, corresponding to RDE groups of low-dose, medium-dose and high-dose. The dose administered to each animal is calculated from the individual body weight recorded at the end of each week. OVX rats groups: Both blank and model groups are given the same volume of distilled water orally, All the other groups commenced treatment according to the way mentioned above for 12 weeks after which animals are sacrificed and investigation of Bone Density and Bone-biomechanics are performed. 7. Measurements • 7.1. […] Bone biomechanics measurements: three point bending tests of left thighbone of each animal are performed; load-deformation curve is recorded to measure the biomechanics index. Experimental parameters: span 20 mm, loading velocity 10 mm/min. Bone structural mechanics parameters: breaking load, elastic load, maximum radius, elastic radius, maximum energy absorption; bone material mechanics parameters: firstly calculated the Femoral Section Inertial Moment, then computed the maximum strain, elastic strain, maximum stress, elastic stress and elastic modulus according to the formulae. [Results]

Primary Osteoporosis [3] = experiment: Clinical test of RDE on primary osteoporosis: ultrasonic bone density of mid-portion of tibia; assay type: in vivo, human; conditions: for ultrasonic bone density, Age matched (difference value) / ultrasonic bone density, Young adult (difference value): RDE 180 mg po tid (n=16), α-D3 0.5 μg po bid (n=15)
Description: as §1, §2, §3, §4, §5

[4] = OVX rats, α-D3 0.002 μg/kg/d oral 12 weeks

Question: Which results are given for C=C1/C(=C\C=C2/CCC[C@]3(C)[C@@H]([C@H](C)CCCC(C)C)CC[C@@H]23)C[C@@H](O)C[C@@H]1O [α-D3]?
Answer: Bone density of collum femoris (Primary Osteoporosis [1]; Before-treatment (baseline)): 0.748 ± 0.095 g/cm^2; Bone density of trigonal area of femur (Primary Osteoporosis [1]; Before-treatment (baseline)): 0.582 ± 0.125 g/cm^2; Bone density of trochanteric of femur (Primary Osteoporosis [1]; Before-treatment (baseline)): 0.606 ± 0.109 g/cm^2; Bone density of lumber (L2–L4) (Primary Osteoporosis [1]; Before-treatment (baseline)): 0.958 ± 0.180 g/cm^2; Change of bone density of collum femoris after vs before treatment (Primary Osteoporosis [1]; after 3 and 6 months, within group): no significant difference; Bone density of collum femoris (Primary Osteoporosis [1]; after 3 months treatment): 0.744 ± 0.100 g/cm^2; Bone density of trigonal area of femur (Primary Osteoporosis [1]; after 3 months treatment): 0.591 ± 0.124 g/cm^2; Bone density of trochanteric of femur (Primary Osteoporosis [1]; after 3 months treatment): 0.616 ± 0.099 g/cm^2; Bone density of lumber (L2–L4) (Primary Osteoporosis [1]; after 3 months treatment): 0.954 ± 0.179 g/cm^2; Change of bone density of lumber (L2–L4) after vs before treatment (Primary Osteoporosis [1]; after 3 or 6 months treatment, within group): no improvement; Bone density of collum femoris (Primary Osteoporosis [1]; after 6 months treatment): 0.744 ± 0.093 g/cm^2; Bone density of trigonal area of femur (Primary Osteoporosis [1]; after 6 months treatment): 0.581 ± 0.134 g/cm^2; Bone density of trochanteric of femur (Primary Osteoporosis [1]; after 6 months treatment): 0.616 ± 0.094 g/cm^2; Bone density of lumber (L2–L4) (Primary Osteoporosis [1]; after 6 months treatment): 0.958 ± 0.145 g/cm^2; all the bone structural mechanics indicators compared with model group ([2]; OVX rats (Table 12)): increased significantly; Area of bone cortes [2, 4]: 4.13 ± 0.99; Elastic load [2, 4]: 88.6 ± 12.7 N; Elastic mould [2, 4]: 7992 ± 1132; Elastic strain (material) [2, 4]: 0.03 ± 0.010; Elastic stress [2, 4]: 147.2 ± 11.00 N/mm^2; Maximum energy observation [2, 4]: 520.48 ± 108.44 N-mm^2; Maximum load [2, 4]: 102.1 ± 2.90 N; Maximum strain (material) [2, 4]: 0.03 ± 0.006; Maximum strain (structural) [2, 4]: 0.96 ± 0.10 mm; Maximum stress [2, 4]: 221.5 ± 46.50 N/mm^2; Rigidity coefficient [2, 4]: 27508 ± 8073; ultrasonic bone density, Age matched (difference value) (Primary Osteoporosis [3]; Before-treatment (baseline)): −1.433 ± 0.788 g/cm^2; ultrasonic bone density, Young adult (difference value) (Primary Osteoporosis [3]; Before-treatment (baseline)): −1.993 ± 0.872 g/cm^2; Speed sound, change self-compared within group (Primary Osteoporosis [3]; RDE P<0.01, α-D3 P<0.05): increase significantly; ultrasonic bone density, Age matched (difference value) (Primary Osteoporosis [3]; after 3 months treatment): −1.386 ± 0.908 g/cm^2; ultrasonic bone density, Young adult (difference value) (Primary Osteoporosis [3]; after 3 months treatment): −1.953 ± 1.181 g/cm^2; ultrasonic bone density, Age matched (difference value) (Primary Osteoporosis [3]; after 6 months treatment): −0.987 ± 1.068 g/cm^2; ultrasonic bone density, Young adult (difference value) (Primary Osteoporosis [3]; after 6 months treatment): −0.593 ± 1.209 g/cm^2
